From patent US7135292B2, “Analysis and modification of gene expression in marine invertebrate cells” (Harbor Branch Oceanographic Institution, Inc., priority 2002, dated 2006)

Assays:
[1] = system: Axinella corrugata cell cultures; experiment: PCR verification of cdc10 and calcineurin B expression; format: cell-based; conditions: two specimens
Description: cDNA Preparation. cDNA was prepared as described in the array experiments, using unlabeled dCTP instead of the α-^33P dCTP. The final product was then diluted 25-fold in water, loaded onto a DNA recovery column (Zymo Research D4001) and washed according to the manufacturer's protocol followed by elution with four consecutive 25-μl aliquots of nuclease free water. The procedure was then repeated for 40-μl aliquots, with a final elution in two aliquots of 20 μl, to produce twice-washed cDNA. Final template solution was prepared from 10 μl of twice-washed cDNA by addition of 80 μl water and precipitation with 30 μl 5M ammonium acetate and 250 μl ethanol at −20° C. for 30 minutes. Samples were centrifuged at 4° C. for 30 minutes at 10,000×g. Pellets were washed twice with 70% ethanol and air-dried for 15 minutes prior to resuspension in 20 μl nuclease free water. For the -RT control reactions, RNA/DNA template amounts were calculated volumetrically, to correspond with the volume of final template used in each reaction. Since some loss of cDNA can be expected for each of the purification steps, the volume of template used in the -RT control reactions likely exceeds that used in the corresponding test reactions, resulting in overestimation of the possible contribution of DNA background signals, acting as a conservative control.
Primers. […]

[2] = system: Axinella corrugata cell cultures; experiment: Fluorescent assays of DNA and protein content in PHA-treated cultures; format: cell-based; conditions: 6 replicate comparisons, observed between 6 and 18 hours after treatment
From the text: Sponge Cells. Cells were obtained from cryopreserved stocks at Harbor Branch Oceanographic Institution. All cells were derived from Axinella corrugata specimens collected in the waters of Florida, the Bahamas, and the Caribbean Sea, and were cryopreserved according to Pomponi et al. (Pomponi et al. 1997b supra). This sponge is relatively common and easy to collect, amenable to culture efforts, and produces the bioactive compound, stevensine, in vitro (Pomponi et al. 1997b supra). Enriched fractions of dissociated sponge cells were prepared, cryopreserved, and thawed according to previously published methods (Pomponi et al. 1997b supra). Cells were incubated at 22–25° C. in a growth medium consisting of a modified and supplemented commercial formulation (Willoughby and Pomponi 2000 supra). The length of the incubation period was based on my unpublished observation of elevated DNA and protein contents (9%, P=0.034, and 9%, P=0.038, respectively) in PHA-treated cultures, according to fluorescent assays of 6 replicate comparisons (Willoughby and Pomponi 2000 supra). Since the effects were observed between 6 and 18 hours after treatment, cells were cultured for 12-hour periods representing the center point of the period of observed changes. […]

phytohemagglutinin [PHA] was tested, and the “cdc10 expression by PCR, PHA treated vs untreated” value ([1]; FIG. 9A) was “up-regulation”, the “calcineurin B expression by PCR, PHA treated vs untreated” value ([1]; FIG. 9B) was “down-regulation” and the “elevated DNA content in PHA-treated cultures” value ([2]; P=0.034) was 9%. The “elevated protein content in PHA-treated cultures” value ([2]; P=0.038) was 9%.
